Test results taken from patent US20240217966A1, “PHARMACEUTICAL COMPOSITION CONTAINING GLP-1 RECEPTOR AGONIST HAVING FUSED RING” (Shionogi & Co., Ltd., priority 2021, published 2024).
Where two headings read alike, the source gives them in different places.

Molecular target: T1, Human GLP-1 receptor (Homo sapiens, UniProt P43220)
T1 construct: expressed in transfected cells
Assay: Measurement of GLP-1 receptor agonist activity (cAMP assay)
Assay type: cell-based
How it was run: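 Agonism measured as cAMP accumulation by time-resolved FRET immunoassay in CHO-K1 cells stably expressing human GLP-1 receptor. Cells treated for 1 h at 37 °C with compound and forskolin (400 μM stock), in buffer containing the PDE inhibitors IBMX (0.1 mM) and RO20-1724 (0.2 mM).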

[1] = CHO-K1, hGLP-1R/CHO-K1 cells, cAMP, 100% = human GLP-1 (7-36) at 2 nM, 0% = DMSO only, read-out: Emax(%)
[2] = hGLP-1R/CHO-K1 cells, cAMP increase, 37° C. 1 hour
[3] = CHO-K1, maximum effect, cAMP increase in GLP-1 R/CHO-K1 cells, 2 nM human GLP-1 (7-36) = 100%, DMSO only = 0%, read-out: Emax
[4] = cAMP increase in GLP-1 R/CHO-K1 cells, 2 nM human GLP-1 (7-36) = 100%, DMSO only = 0%

T1 sequence (P43220 24-463): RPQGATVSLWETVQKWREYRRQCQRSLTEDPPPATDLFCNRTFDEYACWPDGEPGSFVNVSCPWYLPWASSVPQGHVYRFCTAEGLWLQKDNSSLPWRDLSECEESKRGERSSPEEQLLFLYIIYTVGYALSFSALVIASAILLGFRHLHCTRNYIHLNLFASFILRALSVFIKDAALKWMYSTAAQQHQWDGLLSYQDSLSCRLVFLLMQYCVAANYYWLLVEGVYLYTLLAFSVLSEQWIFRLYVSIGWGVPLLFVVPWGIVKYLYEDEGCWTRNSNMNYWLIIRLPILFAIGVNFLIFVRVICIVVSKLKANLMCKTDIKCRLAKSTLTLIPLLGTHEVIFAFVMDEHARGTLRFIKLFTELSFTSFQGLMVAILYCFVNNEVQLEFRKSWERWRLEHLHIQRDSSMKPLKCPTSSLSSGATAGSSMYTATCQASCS

| Emax [1] | EC50 [2] | Emax [3] | EC50 [4] | SMILES |
| --- | --- | --- | --- | --- |
| 112% | 10.5 nM | – | – | O=C(O)c1ccc2nc(CN3CCc4cc(C(F)(F)F)c(OCc5cc(F)c(F)cc5F)cc4C3)n(C[C@@H]3CCO3)c2c1 [Compound I-095] |
| 120% | 10.9 nM | – | – | O=C(O)c1ccc2nc(CN3CCc4cc(C(F)(F)F)c(OCc5ccc(Cl)c(F)c5)cc4C3)n(C[C@@H]3CCO3)c2c1 [Compound I-098] |
| 98.7% | 2.37 nM | – | – | COc1ccc(COc2cc3c(cc2C(F)(F)F)CCN(Cc2nc4ccc(C(=O)O)cc4n2C[C@@H]2CCO2)[C@H]3C)cc1 [Compound I-171] |
| 92.3% | 13.3 nM | – | – | Cc1cc(F)cc(C)c1COc1cc2c(cc1C(F)(F)F)CCN(Cc1nc3ccc(C(=O)O)cc3n1C[C@@H]1CCO1)C2 [Compound I-159] |
| 98% | 2.54 nM | – | – | C[C@H]1c2cc(OCc3ccc(F)cc3F)c(C(F)(F)F)cc2CCN1Cc1nc2ccc(C(=O)O)nc2n1C[C@@H]1CCO1 [Compound I-183] |
| – | – | 114% | 0.223 nM | COc1cc(Cl)ccc1COc1cc2c(cc1Cl)CCN(Cc1nc3c(F)cc(C(=O)O)cc3n1C[C@@H]1CCO1)[C@H]2C [Compound I-334] |
| 88% | 99.3 nM | – | – | Cc1cn(C)nc1COc1cc2c(cc1C(F)(F)F)CCN(Cc1nc3ccc(C(=O)O)cc3n1C[C@@H]1CCO1)C2 [Compound I-147] |
| 130% | 75.4 nM | – | – | O=C(O)c1ccc2nc(CN3CCc4cc(C(F)(F)F)c(OCc5ccc(Cl)cc5F)cc4C3)n(CC3(C(F)F)CC3)c2c1 [Compound I-048] |
| – | – | 102% | 2.03 nM | C[C@H]1c2cc(OCc3c(F)cc(Cl)cc3F)c(Cl)cc2CCN1Cc1nc2ccc(C(=O)O)cc2n1C[C@@H]1CCO1 [Compound I-312] |
| – | – | 94% | 7.87 nM | Cc1ccc(COc2cc3c(cc2Cl)CCN(Cc2nc4ccc(C(=O)O)nc4n2C[C@@H]2CCO2)[C@H]3C)cc1 [Compound I-313] |
| 103% | 9.98 nM | – | – | CCC1c2cc(OCc3ccc(Cl)cc3F)c(C(F)(F)F)cc2CCN1Cc1nc2ccc(C(=O)O)cc2n1C[C@@H]1CCO1 (mixture of isomers) [Compound I-044] |
| – | – | 121% | 0.351 nM | C[C@H]1c2nc(OCc3ccc(Cl)cn3)c(C(F)(F)F)cc2CCN1Cc1nc2ccc(C(=O)O)cc2n1C[C@@H]1CCO1 [Compound I-247] |
| 92.3% | 15 nM | – | – | O=C(O)c1ccc2nc(CN3CCc4cc(Cl)c(OCc5ccc(Cl)cc5F)cc4C3)n(C[C@@H]3CCO3)c2c1 [Compound I-022] |
| – | – | 115% | 0.444 nM | COc1ccc(COc2nc3c(cc2C(F)(F)F)CCN(Cc2nc4ccc(C(=O)O)nc4n2C[C@@H]2CCO2)[C@H]3C)cc1 [Compound I-286] |
| – | – | 105% | 0.31 nM | COc1cc(C(=O)O)cc2c1nc(CN1CCc3cc(Cl)c(OCc4ccc(C)cc4)cc3[C@@H]1C)n2C[C@@H]1CCO1 [Compound I-340] |
| 92.7% | 26.4 nM | – | – | O=C(O)c1ccc2nc(CN3CCc4cc(Cl)c(OCc5ccc(Cl)cc5F)cc4C3)n(C[C@@H]3CCO3)c2n1 [Compound I-024] |
| 106% | 5.09 nM | – | – | O=C(O)c1ccc2nc(CN3CCc4cc(C(F)(F)F)c(OCc5ccc(C6CC6)cc5)cc4C3)n(C[C@@H]3CCO3)c2c1 [Compound I-102] |
| 97.3% | 8.94 nM | – | – | C[C@H]1c2cc(OCc3ccc(C4CC4)cc3)c(C(F)(F)F)cc2CCN1Cc1nc2ccc(C(=O)O)nc2n1C[C@@H]1CCO1 [Compound I-180] |
| – | – | 109% | 0.806 nM | O=C(O)c1ccc2nc(CN3CCc4cc(C(F)(F)F)c(OCc5cc(F)c(Cl)cc5F)nc4C3)n(C[C@@H]3CCO3)c2c1 [Compound I-278] |
| – | – | 116% | 0.0124 nM | COc1cc(C(=O)O)cc2c1nc(CN1CCc3cc(C(F)(F)F)c(OCc4ccc(C#N)cc4F)nc3[C@@H]1C)n2C[C@@H]1CCO1 [Compound I-242] |
| – | – | 112% | – | N#Cc1ccc(COc2nc3c(cc2C(F)(F)F)CCN(Cc2nc4ccc(C(=O)O)c(F)c4n2C[C@@H]2CCO2)C3)c(F)c1 [Compound I-300] |
| – | – | 115% | 0.0609 nM | C[C@H]1c2nc(OCc3ccc(F)cc3)c(C(F)(F)F)cc2CCN1Cc1nc2c(F)cc(C(=O)O)cc2n1C[C@@H]1CCO1 [Compound I-307] |
| 104% | 0.302 nM | – | – | COc1cc(Cl)ccc1COc1cc2c(cc1C(F)(F)F)CCN(Cc1nc3ccc(C(=O)O)cc3n1C[C@@H]1CCO1)[C@H]2C [Compound I-164] |
| – | – | 125% | 0.159 nM | COc1cc(Cl)ccc1COc1nc2c(cc1C(F)(F)F)CCN(Cc1nc3c(F)cc(C(=O)O)cc3n1C[C@@H]1CCO1)C2 [Compound I-382] |
| 132% | 0.604 nM | – | – | C[C@H]1c2cc(OCc3c(F)cc(Cl)cc3F)c(C(F)(F)F)cc2CCN1Cc1nc2ccc(C(=O)O)cc2n1C[C@@H]1CCO1 [Compound I-114] |

| Emax [1] | EC50 [2] | Emax [3] | EC50 [4] | SMILES |
| --- | --- | --- | --- | --- |
| – | – | 121% | 0.164 nM | Cc1ccc(COc2nc3c(cc2C(F)(F)F)CCN(Cc2nc4ccc(C(=O)O)cc4n2C[C@@H]2CCO2)[C@H]3C)cc1 [Compound I-250] |
| 79% | 50.3 nM | – | – | Cc1cc2c(cc1OCc1ccc(Cl)cc1)CN(Cc1nc3ccc(C(=O)O)cc3n1C[C@@H]1CCO1)CC2 [Compound I-016] |
| 104% | 2.24 nM | – | – | C[C@H]1c2cc(OCc3ccc(OC(F)F)cc3F)c(C(F)(F)F)cc2CCN1Cc1nc2ccc(C(=O)O)cc2n1C[C@@H]1CCO1 [Compound I-168] |
| – | – | 123% | 0.0425 nM | COc1cc(Cl)ccc1COc1nc2c(cc1C(F)(F)F)CCN(Cc1nc3ccc(C(=O)O)c(F)c3n1C[C@@H]1CCO1)[C@H]2C [Compound I-357] |
| 95% | 5.03 nM | – | – | CCn1cncc1Cn1c(CN2CCc3cc(C(F)(F)F)c(OCc4ccc(Cl)cc4F)cc3C2)nc2ccc(C(=O)O)cc21 [Compound I-049] |
| – | – | 124% | 0.902 nM | Cc1csc(COc2nc3c(cc2C(F)(F)F)CCN(Cc2nc4ccc(C(=O)O)cc4n2C[C@@H]2CCO2)[C@H]3C)n1 [Compound I-248] |
| – | – | 117% | 0.023 nM | C[C@H]1c2nc(OCc3c(F)cc(Cl)cc3F)c(C(F)(F)F)cc2CCN1Cc1nc2c(F)cc(C(=O)O)cc2n1C[C@@H]1CCO1 [Compound I-372] |
| 114% | 1.1 nM | – | – | C[C@H]1c2cc(OCc3ccc(C#N)cc3)c(C(F)(F)F)cc2CCN1Cc1nc2c(F)cc(C(=O)O)cc2n1C[C@@H]1CCO1 [Compound I-112] |
| 96% | 18 nM | – | – | Cc1cc(Cl)ccc1COc1cc2c(cc1C(F)(F)F)CCN(Cc1nc3ccc(C(=O)O)cc3n1C[C@@H]1CCO1)C2 [Compound I-140] |
| – | – | 96.3% | 3.2 nM | O=C(O)c1ccc2nc(CN3CCc4cc(C(F)(F)F)c(OCc5ccccc5Cl)nc4C3)n(C[C@@H]3CCO3)c2c1 [Compound I-277] |
| 119% | 23.4 nM | – | – | Cc1cc(COc2cc3c(cc2C(F)(F)F)CCN(Cc2nc4ccc(C(=O)O)cc4n2C[C@@H]2CCO2)C3)no1 [Compound I-070] |
| – | – | 100% | 0.466 nM | C[C@H]1c2cc(OCc3ccc(Cl)cc3F)c(Cl)cc2CCN1Cc1nc2ccc(C(=O)O)c(F)c2n1C[C@@H]1CCO1 [Compound I-324] |
| 92% | 24.5 nM | – | – | O=C(O)c1ccc2nc(CN3CCc4cc(C(F)(F)F)c(OCc5ccc(Cl)cc5F)cc4C3)n(Cc3ncco3)c2c1 [Compound I-052] |
| 113% | 0.658 nM | – | – | C[C@H]1c2cc(OCc3ccc(Cl)cc3Cl)c(C(F)(F)F)cc2CCN1Cc1nc2ccc(C(=O)O)nc2n1C[C@@H]1CCO1 [Compound I-118] |
| – | – | 109% | 0.354 nM | COc1cc(C(=O)O)cc2c1nc(CN1CCc3cc(C(F)(F)F)c(OCc4cc(F)c(Cl)cc4F)cc3[C@@H]1C)n2C[C@@H]1CCO1 [Compound I-234] |
| – | – | 105% | 0.79 nM | O=C(O)c1ccc2nc(CN3CCc4cc(C(F)(F)F)c(OCc5c(F)cc(F)cc5F)nc4C3)n(C[C@@H]3CCO3)c2c1 [Compound I-280] |
| – | – | 123% | 0.0474 nM | C[C@H]1c2nc(OCc3ccc(F)cc3F)c(C(F)(F)F)cc2CCN1Cc1nc2ccc(C(=O)O)c(F)c2n1C[C@@H]1CCO1 [Compound I-359] |
| 115% | 0.73 nM | – | – | C[C@H]1c2cc(OCc3ccc(Cl)cc3)c(C(F)(F)F)cc2CCN1Cc1nc2ccc(C(=O)O)c(F)c2n1C[C@@H]1CCO1 [Compound I-193] |
| – | – | 112% | 0.861 nM | COc1cc(Cl)ccc1COc1nc2c(cc1C(F)(F)F)CCN(Cc1nc3ccc(C(=O)O)cc3n1C[C@@H]1CCO1)C2 [Compound I-267] |
| 105% | 4.3 nM | – | – | O=C(O)c1ccc2nc(CN3CCc4cc(C(F)(F)F)c(OCc5ccc(OC(F)F)cc5F)cc4C3)n(C[C@@H]3CCO3)c2c1 [Compound I-047] |
| 106% | 1.37 nM | – | – | Cc1ccc(COc2cc3c(cc2C(F)(F)F)CCN(Cc2nc4ccc(C(=O)O)cc4n2C[C@@H]2CCO2)[C@H]3C)cc1 [Compound I-162] |
| 104% | 1 nM | – | – | C[C@H]1c2cc(OCc3ccc(OC(F)F)cc3F)c(C(F)(F)F)cc2CCN1Cc1nc2c(F)cc(C(=O)O)cc2n1C[C@@H]1CCO1 [Compound I-212] |
| – | – | 118% | 0.148 nM | COc1ccc(COc2nc3c(cc2C(F)(F)F)CCN(Cc2nc4c(F)cc(C(=O)O)cc4n2C[C@@H]2CCO2)[C@H]3C)cc1 [Compound I-364] |
| 101% | 25.3 nM | – | – | O=C(O)c1ccc2nc(CN3CCc4cc(C(F)(F)F)c(OCc5ccc(OC(F)F)c(F)c5)cc4C3)n(C[C@@H]3CCO3)c2c1 [Compound I-143] |
